In patent publication US11156599B2, “Assay for telomere length regulators” (The Johns Hopkins University, priority 2015, dated 2021):

Legend:
Format in all cases: cell-based, mouse
[1] = system: de novo telomere addition on chr4 in SL13 cells; assay: ADDIT assay (Addition of de novo initiated telomeres): modified STELA PCR and PacBio sequencing
From the text: To examine potential mammalian genes that regulate telomere length, an assay was developed that allows visualization of telomere addition in vivo, referred here as ADDIT (Addition of de novo initiated telomeres). In a chromosomally stable CASTEiJ mouse fibroblast cell line, chromosome 4 (chr4) was modified to generate an internal 480 bp telomere ‘seed’ sequence followed by a unique I-Sce1 endonuclease cut site (FIG. 1A). The length of seed sequence was based on an early study showing that 400 bp of telomere repeats can act as functional telomeres. Using Southern blot analysis, two independent HYG-positive clones were identified, clone 1L and 1M, with a single chr4 allele correctly modified (data not shown).
To better visualize the telomere addition on the I-Sce1 cut telomere seed, the single telomere length analysis (STELA) (Baird et al., 2004, Hum Mol Genet 13, 1515-1524), a PCR-based approach that can measure telomere lengths from individual chromosome ends was modified. The STELA assay employs annealing and ligation of a linker, ‘telorette’, with TTAGGG and a unique 20-nucleotide sequence to the G-rich 3′ telomere overhang followed by PCR of the telomere from a ‘teltail’ primer and primer in the HYG sequence on the engineered chromosome (FIG. 2). The PCR product lengths will be proportional to the telomere lengths at the cleaved chr4 allele. As a control, to amplify the un-extended cut chromosome in vitro, a different linker, ‘IScerette’ was designed, which has a 4-nt homology to the 4-nt 3′ overhang created by the I-Sce1 endonuclease at the cleavage site (FIG. 2). […] This in vitro IScerette PCR product serves as a marker for the base line length of the cut, unextended telomere seed sequence.
To further verify the longer STELA PCR products represent de novo telomere addition, the PCR products were sequenced with Pacific Biosciences (PACBIO®) next generation sequencing technology. The PACBIO® platform produces longer reads and is less GC bias compared to other next generation sequencing platforms. While errors were present in the sequence as expected, the telomere repeats were easily recognizable. All of the reads from the PACBIO® were filtered and only those that had unique HYG sequence followed by telomere sequence and the ‘teltail’ primer sequence were examined. This assures that only full length of STELA PCR products were analyzed. The reads were then aligned at the junction between the HYG sequence and the telomere repeats. Wild-type TTAGGG repeats were colored orange and variant telomere repeats were colored in darker orange (FIG. 3A). Some of these variants arose due to errors in sequencing. An error rate similar to the published error rate of PACBIO® sequencing, 10-15% was observed. The errors were uniformly distributed over the reference sequence, dominated by point insertions and deletions, as expected for PACBIO® sequencing. There were three regions of divergent sequence in the original construct that are evident as darker orange stripes in the aligned reads (see for reference, in vitro IScelrette). These are small variation in TTAGGG sequence in the original SL13 clone and serve as useful internal reference points.
The original STELA protocol used for human cells (Baird et al., 2004, Hum Mol Genet 13, 1515-1524) was modified to measure telomere lengths on the de novo end of chr4 in SL13 cells. Briefly, genomic DNA was extracted using Puregene Core Kit A ^TM (Qiagen). 4 μg of genomic DNA was digested with SphI (NEB) and later diluted to 10 ng/μl in water. For the in vitro IScerette sample, genomic DNA was digested with SphI and I-SceI (NEB) prior to ligation. The ligation was carried out at 35° C. for at least 12 hrs in a volume of 10 μl containing 10 ng of digested genomic DNA, 0.9 μM of telorette linkers (mixture of telorette 1 to 6) or IScerette linker and 0.5 U of T4 DNA ligase (NEB) in 1× T4 ligation buffer. […]

SL13 cells [2] = assay: Cell cycle profile by propidium iodide staining and flow cytometry; details: 200 ng/ml colcemid or 2.5 mM thymidine, 24 hrs
Description: SL13 cells were grown in DMEM (Gibco) supplemented with 1% Penicillin/Streptomycin/Glutamine and 10% Tet system approved FBS (Clontech, #631107). Final concentration of 2 μg/ml of doxycycline was added in the media to induce I-Sce1 expression. Typically cells were collected post 48 hours of doxcycline treatment. To arrest cells in different cell cycle phases, cells were treated with either final concentration of 200 ng/ml colcemid (Gibco KaryoMAX Colcemid Solution, #15212-012) or 2.5 mM Thymidine (Sigma, #T-1895).
Cell cycle phase was accessed by DNA content using propidium iodide (PI) staining and flow cytometry analysis. Briefly, cell pellets were washed with 1× PBS at 500× g for 5 minutes and resuspended in 500 μl of 1× PBS. 4.5 ml of ice cold 70% ethanol was added drop by drop, and incubated overnight at 4° C. Samples were washed with 5 ml 1× PBS and incubated with 500 μl of PI-Triton resuspension buffer at room temperature for ≥30 minutes protected from light. PI-Triton resuspension buffer was made of 0.1% Triton™ X-100, 200 μg/ml RNase A, 20 μg/ml PI (Invitrogen, #P3566) in 1× PBS. PI-stained samples were transferred to strainer tubes (BD Falcon) and run on FACSCalibur™ flow cytometry (BD Biosciences). Cell cycle profiles were analyzed utilizing the Dean-Jet-Fox™ model in FlowJo™ software (FlowJo™).

HA-tagged I-Sce1 = assay: Quantitative RT-PCR of HA-tagged I-Sce1 expression; details: 200 ng/ml colcemid or 2.5 mM thymidine, 48 hrs; normalized to HPRT
Description: To measure HA-tagged I-Sce1 expression levels, quantitative RT-PCR was performed as described in 2.4.5. Primers used are the following: HA-ISce1-FOR, 5′-[…]-3′ (SEQ ID NO: 143); ISce1-REV2, 5′-[…]-3′ (SEQ ID NO: 144); HPRT_F, 5′-[…]-3′ (SEQ ID NO: 145); HPRT_R, 5′-[…]-3′ (SEQ ID NO: 146).

SL13 cells [3] = assay: Southern blot of genomic DNA for de novo telomere addition smear in arrested cells; details: cells arrested in G1 phase versus control cells and G2/M cells
From the text: To examine the in vivo chr4 cleavage and de novo telomere addition, genomic DNA extracted from SL13 cells arrested at different cell phases and treated with doxycycline for various time points were digested with Ncol restriction enzyme (NEB) and further analyzed by Southern blot as described previously in Example 1 with a random primed α-32P-labeled HYG probe.

Compound | PacBio reads with de novo telomere addition in cells held in G2/M phase ([1]; 200 ng/ml colcemid, 48 hrs) | cell cycle phase of arrest (SL13 cells [2]) | I-Sce1 expression in cells arrested at different phases (HA-tagged I-Sce1) | elongation beyond the chr4 I-Sce1-induced cut base line ([1]; Southern blot analysis of STELA PCR products, 400 nM flavopiridol) | 'smear' representative of de novo telomere addition (SL13 cells [3])
CN[C@H]1CCc2cc(OC)c(OC)c(OC)c2-c2ccc(OC)c(=O)cc21 [colcemid] | significant percentage of PacBio® reads with de novo telomere addition | arrested in G2/M phase | no significant difference |  | 
CN1CC[C@H](c2c(O)cc(O)c3c(=O)cc(-c4ccccc4Cl)oc23)[C@H](O)C1 [flavopiridol] |  |  |  | minimal elongation | 
Cc1cn([C@H]2C[C@H](O)[C@@H](CO)O2)c(=O)[nH]c1=O [thymidine] |  | G1/early S phase | no significant difference |  | even less ‘smear’
